# Reference: US20250057963A1, “DISCOVERY OF PIPERLONGUMINE AS A NOVEL E3 LIGASE LIGAND” (University of Florida Research Foundation, Incorporated, priority 2021, published 2025)
# Assays:
# CDK9 = CDK9 (Homo sapiens, UniProt P50750); experiment: 955-induced CDK9 degradation in H1299 cells after KEAP1, TRIP12 or TRAF6 knockdown/knockout and KEAP1 rescue; type: cell-based; parameters: endogenous in cells; host or cells: MOLT4, 293T, K562, NCI-H1299, LNCaP
# Protocol: Cells were collected and lysed in RIPA lysis buffer (Cat. #BP-115DG, Boston Bio Products, Ashland, MA, USA) supplemented with protease and phosphatase inhibitor cocktails (Cat. #PPC1010, Sigma-Aldrich, St. Louis, MO, USA). Protein samples were made and immunoblotting was performed as described previously (Khan et al., 2019; Lv et al., 2021). Antibodies purchased from Cell Signaling Technologies (CST) and the dilutions are as follows: Biotin (Cat. No. 5571S, 1:1000), PARP (Cat. No. 9542S, 1:1000), c-Myc (Cat. No. 5605S, 1:1000), MCL1 (Cat. No. 5453S, 1:1000), and ALK (Cat. No. 3791S, 1:1000). KEAP1 antibody was purchased from Proteintech (Cat. No. 10503-2-AP, 1:1000). CDK9 antibody was purchased from Santa Cruz (Cat. No. sc-13130, 1:500). V5-tag antibody was purchased from Bethyl (Cat. No. A190-120P, 1:1000). j-actin antibody was purchased from MP Biomedicals (Cat. No. 8691001, 1:20 000).
# To knockout KEAP1, two lentiviral CRISPR knockout plasmids targeting human KEAP1 gene were purchased from Abm (Cat. No. 254911110595). Packaging 293T cells were transfected with KEAP1 single guide RNA (sgRNA) and helper vectors (pMD2.G and psPAX2; Addgene plasmid #12259 and 12260) using Lipofectamine 3000 reagent (Cat. No. L3000015, Thermal Fisher). Medium containing lentiviral particles and 8 µg/mL polybrene (Sigma-Aldrich) was used to infect H1299 cells. Infected cells were selected in medium containing […] puromycin. The sgRNA target sequences are as follows: sg1: […]; sg2: […]. Single clones were selected by serial dilution.
# KEAP1-sg1 knockout H1299 (4×10^5) cells were transfected with or without plasmid expressing Halo-KEAP1 (Addgene, a gift from Yimon Aye, plasmid #58240) using Lipofectamine 3000 reagent (Cat. No. L3000015, Thermal Fisher). After 24 h, the cells in each well of 6-well plate were divided into two wells and cultured for additional 16 h.
# [1] = system: LNCaP prostate cancer cells and H1299 lung cancer cells; experiment: Cell killing (MTS) with or without KEAP1 siRNA knockdown; type: cell-based, Human; settings: KEAP1 siRNA vs control siRNA 48 h; compound 0.1 mM (LNCaP) or 0.3 mM (H1299) for 24 h
# Protocol: FIGS. 19A to 19B show percentages of cell killing in LNCaP (FIG. 19A) and H1299 (FIG. 19B) cells with or without KEAP1 knockdown. LNCaP and H1299 cells were treated with control siRNA or siRNAs targeting KEAP1 for 48 h and then reseeded and treated with indicated compound (0.1 mM for LNCaP cells and 0.3 mM for H1299 cells) for 24 h. The cell viability was then determined by MTS assay. The data are presented as mean±SD from three replicate cell cultures in a representative experiment. Data are representative of two independent experiments. Statistical significance was calculated with unpaired two-tailed Student's t-tests. **P<0.01; ***P<0.001; NS: not significant.
# Viability (MTS) assays in various cancer cells followed the methods described in our previous report (Khan et al., 2019). The data were expressed as average % cell viability and fitted in non-linear regression curves using GraphPad Prism 9 (GraphPad Software, La Jolla, CA, USA).
# CDK9, sequence (P50750 whole entry): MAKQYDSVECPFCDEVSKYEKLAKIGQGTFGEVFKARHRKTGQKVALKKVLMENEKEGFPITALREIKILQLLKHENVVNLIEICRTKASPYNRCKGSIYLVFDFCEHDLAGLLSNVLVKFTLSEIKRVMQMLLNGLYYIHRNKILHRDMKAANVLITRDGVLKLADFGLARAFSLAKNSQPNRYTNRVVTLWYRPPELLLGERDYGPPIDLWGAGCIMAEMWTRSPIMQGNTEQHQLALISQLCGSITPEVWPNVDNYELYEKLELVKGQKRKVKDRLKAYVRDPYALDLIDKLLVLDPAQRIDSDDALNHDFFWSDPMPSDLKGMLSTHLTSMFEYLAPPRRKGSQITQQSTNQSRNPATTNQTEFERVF
smiles,measurement,setting,value
"COc1cc(/C=C/C(=O)N2CCC=CC2=O)cc(OC)c1OCCN1CCN(C(=O)CN2CCC(C(=O)Nc3ncc(SCc4ncc(C(C)(C)C)o4)s3)CC2)CC1 [compound 955, (E)-N-(5-(((5-(tert-butyl)oxazol-2-yl)methyl)thio)thiazol-2-yl)-1-(2-(4-(2-(2,6-dimethoxy-4-(3-oxo-3-(6-oxo-3,6-dihydropyridin-1(2H)-yl)prop-1-en-1-yl)phenoxy)ethyl)piperazin-1-yl)-2-oxoethyl)piperidine-4-carboxamide]","955-induced CDK9 degradation after KEAP1 knock down/out (siRNA, CRISPR-Cas9)",CDK9; H1299 cells,blocked after depleting KEAP1
same,955-induced CDK9 degradation after TRIP12 or TRAF6 siRNA knockdown,"CDK9; H1299 cells, 6 h",had no effect
same,955-induced CDK9 degradation after ectopic Halo-tagged KEAP1 in KEAP1 stable knockout cells,"CDK9; KEAP1-sg1 knockout H1299 cells, 955 for 6 h",rescued CDK9 degradation
same,effect of KEAP1 knockdown on cytotoxicity of the compound,[1],attenuated the cytotoxicity
